According to patent US7833964B2, “Methods of reducing visceral fat by increasing levels of insulin-like growth factor-I (IGF-I)” (Tercica, Inc., priority 2003, dated 2010):

Assay: Adverse events judged possibly or probably related to study drug
Conditions: glyburide 10 mg BID + rhIGF-I placebo (N = 34)
Procedure: All adverse events occurring during the treatment and post-treatment periods of the study (day 1 to week 14) were monitored through the follow-up evaluation at week 14. Adverse events continuing beyond the follow-up period were monitored until resolution, as appropriate.
In addition to the adverse events described above, hypoglycemia was expected to occur in some subjects. Hypoglycemia was defined as a BG of <50 mg/dL as indicated by the One-Touch Profile BG meter or the clinical laboratory. In the event of repeated hypoglycemic episodes, the glyburide dose could be decreased (during the treatment period only). Symptomatic hypoglycemic episodes, regardless of blood glucose reading, were documented as hypoglycemia.

COc1ccc(Cl)cc1C(=O)NCCc1ccc(S(=O)(=O)NC(=O)NC2CCCCC2)cc1 [Glyburide, glyburide, reference compound]
Adverse event: Arthralgia: 1 (3) n (%) | Adverse event: Asthenia: 2 (6) n (%) | Adverse event: Headache: 2 (6) n (%) | Adverse event: Hypoglycemia: 3 (9) n (%) | Adverse event: Jaw pain: 1 (3) n (%) | Adverse event: Pain: 2 (6) n (%) | Adverse event: Peripheral Edema: 0 n (%)
